Measured values from the supplement of paper PMC10307832.

Compound: Nc1ccn([C@@H]2O[C@H](CO)[C@@H](O)C2(F)F)c(=O)n1 [Gemcitabine]
Experiment: relative viability (nuclei count vs DMSO), 5 days (fraction); higher = more cells survive
Method in brief: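 On vehicle-anchored 1536-well plates, lung cancer cell lines held overnight at 37 °C were pinned with five library-drug doses (not always all listed) spaced by √10. With no medium change over 5 days, they were then fixed, permeabilised and Hoechst-stained in one step and imaged at 4×. MetaXpress counted nuclei, and viability is the median across plates of treated-well over vehicle-well nuclei. Acceptance needed control CV below 25% and at least one doubling.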

Cell Line	relative viability (0.001 µM)	relative viability (0.003162 µM)	relative viability (0.01 µM)	relative viability (0.03162 µM)	relative viability (0.1 µM)
NCI-H441	0.993	0.63	0.292	0.13	0.139
NCI-H1793	1.02	1.04	0.565	0.168	0.146
NCI-H23	0.898	0.299	0.144	0.146	0.139
HARA	1.03	0.984	0.971	0.469	0.118
NCI-H1792	1.06	0.43	0.165	0.127	0.0999
NCI-H1703	0.699	0.264	0.138	0.126	0.115
NCI-H1648	0.846	0.771	0.999	0.413	0.283
CAL-12T	1.04	0.935	0.643	0.206	0.14
NCI-H727	0.802	0.567	0.347	0.332	0.32
NCI-H2085	1.05	0.954	0.852	0.792	0.439
NCI-H1395	0.779	0.594	0.422	0.365	0.364
SW 900	0.802	0.424	0.153	0.134	0.141
NCI-H460	1.03	0.963	0.774	0.0431	0.0112
A549	1.03	0.894	0.0734	0.0244	0.0209
IA-LM	0.963	0.88	0.74	0.108	0.0519
EKVX	0.943	0.766	0.461	0.201	0.139
ChaGo-K-1	1.07	0.871	0.538	0.265	0.219
NCI-H1755	0.97	1	0.943	0.633	0.305
NCI-H2228	0.973	0.695	0.235	0.161	0.132
NCI-H2087	1.04	0.852	0.349	0.132	0.118
LU99A	0.864	1.08	0.932	1.01	0.918
NCI-H1355	0.987	0.818	0.392	0.187	0.152
NCI-H520	1.05	0.942	0.43	0.22	0.165
NCI-H661	1.05	0.941	0.808	0.305	0.259
NCI-H650	0.878	0.316	0.195	0.157	0.165
NCI-H647	0.786	0.202	0.0889	0.0675	0.0582

Cell Line	relative viability (0.001 µM)	relative viability (0.003162 µM)	relative viability (0.01 µM)	relative viability (0.03162 µM)	relative viability (0.1 µM)
201T	0.939	0.958	0.988	0.697	0.482
NCI-H838	0.987	1.15	1.05	0.467	0.153
SW 1573	0.911	0.736	0.239	0.101	0.0671
PC-14	0.97	0.407	0.151	0.0526	0.0522
LK-2	0.997	0.915	0.708	0.255	0.187
COR-L23	0.992	0.941	0.701	0.117	0.0953
NCI-H1944	1	0.995	0.821	0.496	0.235
HCC-78	0.849	0.595	0.436	0.255	0.237
NCI-H2405	0.995	0.66	0.533	0.268	0.211
SK-LU-1	1.01	0.479	0.243	0.191	0.228
EMC-BAC-2	0.89	0.996	0.642	0.267	0.226
NCI-H1650	1.04	0.572	0.271	0.154	0.163
NCI-H596	1.32	0.929	0.564	0.31	0.283
LCLC-97TM1	0.909	0.455	0.139	0.0859	0.0792
H3255	0.981	0.781	0.631	0.297	0.198
LXF-289	1.01	0.977	0.826	0.206	0.123
UMC-11	1.04	0.992	0.974	0.869	0.375
LC-2-ad	1.03	0.763	0.762	0.316	0.159
SK-MES-1	0.945	0.473	0.216	0.203	0.17
A-427	0.96	0.867	0.584	0.293	0.143
NCI-H322M	0.813	0.375	0.295	0.281	0.304
HCC-366	0.992	0.939	0.535	0.0641	0.0314
NCI-H1975	0.984	1.1	0.648	0.216	0.174
NCI-H1437	1.01	0.854	0.705	0.362	0.21
NCI-H2009	1.01	0.746	0.24	0.167	0.114
NCI-H1651	0.987	0.955	0.929	0.285	0.141

Cell Line	relative viability (0.001 µM)	relative viability (0.003162 µM)	relative viability (0.01 µM)	relative viability (0.03162 µM)	relative viability (0.1 µM)
LCLC-103H	0.933	1.07	1	0.769	0.376
NCI-H1666	0.965	1	0.909	0.61	0.412
NCI-H1734	0.984	0.856	0.263	0.121	0.125
EPLC-272H	1.05	1.01	0.591	0.113	0.0839
NCI-H2023	1.03	0.92	0.444	0.103	0.0642
BEN	0.973	0.726	0.282	0.152	0.117
COR-L 105	0.947	0.934	0.572	0.269	0.234
ABC-1	0.965	0.823	0.703	0.291	0.235
HCC-15	1.04	1.06	0.941	0.468	0.108
NCI-H2170	0.99	0.999	0.86	0.498	0.158
PC-3 [JPC-3]	1.1	0.779	0.771	0.36	0.373
NCI-H1993	0.974	0.958	0.604	0.441	0.558
NCI-H358	0.972	0.415	0.179	0.154	0.157
NCI-H1563	0.998	0.983	0.866	0.538	0.49
EBC-1	0.791	0.235	0.174	0.138	0.142
NCI-H1915	0.981	1.03	0.98	0.865	0.475
RERF-LC-KJ	1.01	1	0.973	0.496	0.247
LOU-NH91	0.982	0.788	0.585	0.338	0.301
NCI-H2347	1	0.915	0.68	0.492	0.381
NCI-H2126	0.971	1	0.906	0.77	0.458
HCC-827	1.05	0.928	0.783	0.51	0.252
Calu-6	0.975	0.649	0.33	0.147	0.129
NCI-H3122	0.975	1.04	0.913	0.214	0.14
HOP-62	0.923	0.855	0.176	0.103	0.0838
HCC-44	0.99	0.815	0.935	0.527	0.264
